According to paper PMC6718313 (European journal of medicinal chemistry, 2019):

Target: T1, ABCG2 (Homo sapiens, UniProt Q9UNQ0)
T1 sequence (Q9UNQ0 1-655): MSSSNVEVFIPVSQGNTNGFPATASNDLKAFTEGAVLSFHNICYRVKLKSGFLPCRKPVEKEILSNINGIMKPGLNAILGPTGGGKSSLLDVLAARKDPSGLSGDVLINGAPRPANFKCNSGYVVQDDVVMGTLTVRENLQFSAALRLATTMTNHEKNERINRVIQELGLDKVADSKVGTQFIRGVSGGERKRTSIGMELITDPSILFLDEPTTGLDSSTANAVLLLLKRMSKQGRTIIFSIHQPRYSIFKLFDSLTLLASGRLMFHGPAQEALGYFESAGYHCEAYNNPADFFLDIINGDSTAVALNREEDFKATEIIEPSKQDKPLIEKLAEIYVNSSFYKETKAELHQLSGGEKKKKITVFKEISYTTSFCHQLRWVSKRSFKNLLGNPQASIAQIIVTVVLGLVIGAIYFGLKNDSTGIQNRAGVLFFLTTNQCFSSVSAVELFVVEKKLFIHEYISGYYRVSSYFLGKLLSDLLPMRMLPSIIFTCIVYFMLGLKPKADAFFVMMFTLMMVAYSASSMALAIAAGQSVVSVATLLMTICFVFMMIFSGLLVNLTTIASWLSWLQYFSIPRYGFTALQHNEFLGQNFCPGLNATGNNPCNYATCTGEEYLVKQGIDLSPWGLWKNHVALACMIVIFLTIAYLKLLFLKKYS
Assay: Vi-sensitive ABCG2 ATPase stimulation in High Five insect cell membranes
Assay type: biochemical

| Compound | EC50 [nM] |
| --- | --- |
| COc1ccc(C(=O)c2ccc3[nH]cc(C(=O)c4ccc(OC)cc4)c3c2OC)cc1 [compound 2, (4-methoxy-1H-indole-3,5-diyl)bis((4-methoxyphenyl)methanone)] | 210 |
| COc1ccc(C(=O)c2c[nH]c3ccc(OC)cc23)cc1 [compound 8, (5-Methoxy-1H-indol-3-yl)(4-methoxyphenyl)methanone] | 750 |
